Data published in ChEMBL document CHEMBL4507279, “Data for DCP probe BI-9627” (2021).

Assays:
[1] = tested on: Tyrosine-protein kinase ABL1 (Homo sapiens), P00519 [F317I]; conditions: Compound concentration 1000.0 nM
[2] = tested on: Tyrosine-protein kinase ABL1 (Homo sapiens), P00519 [H396P]; conditions: Compound concentration 1000.0 nM
[3] = target: Tyrosine-protein kinase ABL2 (Homo sapiens) (UniProt P42684); conditions: Compound concentration 1000.0 nM
[4] = target: 5'-AMP-activated protein kinase catalytic subunit alpha-1 (Homo sapiens) (UniProt Q13131); conditions: Compound concentration 1000.0 nM
[5] = target: NUAK family SNF1-like kinase 1 (Homo sapiens) (UniProt O60285); conditions: Compound concentration 1000.0 nM
[6] = target: Calcium/calmodulin-dependent protein kinase type 1 (Homo sapiens) (UniProt Q14012); conditions: Compound concentration 1000.0 nM
[7] = target: Calcium/calmodulin-dependent protein kinase kinase 1 (Homo sapiens) (UniProt Q8N5S9); conditions: Compound concentration 1000.0 nM
[8] = target: Cyclin-dependent kinase 4 (Homo sapiens) (UniProt P11802); conditions: Compound concentration 1000.0 nM
[9] = target: Cyclin-dependent kinase 7 (Homo sapiens) (UniProt P50613); conditions: Compound concentration 1000.0 nM
[10] = target: Dual specificity protein kinase CLK2 (Homo sapiens) (UniProt P49760); conditions: Compound concentration 1000.0 nM
[11] = target: Death-associated protein kinase 2 (Homo sapiens) (UniProt Q9UIK4); conditions: Compound concentration 1000.0 nM
[12] = target: Epidermal growth factor receptor (Homo sapiens) (UniProt P00533); conditions: Compound concentration 1000.0 nM
[13] = tested on: Epidermal growth factor receptor (Homo sapiens), P00533 [UNDEFINED MUTATION]; conditions: Compound concentration 1000.0 nM
[14] = target: Fibroblast growth factor receptor 3 (Homo sapiens) (UniProt P22607); conditions: Compound concentration 1000.0 nM
[15] = tested on: Fibroblast growth factor receptor 3 (Homo sapiens), P22607 [G697C]; conditions: Compound concentration 1000.0 nM
[16] = tested on: Receptor-type tyrosine-protein kinase FLT3 (Homo sapiens), P36888 [UNDEFINED MUTATION]; conditions: Compound concentration 1000.0 nM
[17] = target: Homeodomain-interacting protein kinase 3 (Homo sapiens) (UniProt Q9H422); conditions: Compound concentration 1000.0 nM
[18] = target: Insulin-like growth factor 1 receptor (Homo sapiens) (UniProt P08069); conditions: Compound concentration 1000.0 nM
[19] = tested on: Mast/stem cell growth factor receptor Kit (Homo sapiens), P10721 [D816H]; conditions: Compound concentration 1000.0 nM
[20] = tested on: Mast/stem cell growth factor receptor Kit (Homo sapiens), P10721 [L576P]; conditions: Compound concentration 1000.0 nM
[21] = target: Mitogen-activated protein kinase kinase kinase 4 (Homo sapiens) (UniProt Q9Y6R4); conditions: Compound concentration 1000.0 nM
[22] = target: MAP kinase-interacting serine/threonine-protein kinase 2 (Homo sapiens) (UniProt Q9HBH9); conditions: Compound concentration 1000.0 nM
[23] = target: Serine/threonine-protein kinase 38-like (Homo sapiens) (UniProt Q9Y2H1); conditions: Compound concentration 1000.0 nM
[24] = target: Serine/threonine-protein kinase PAK 1 (Homo sapiens) (UniProt Q13153); conditions: Compound concentration 1000.0 nM
[25] = tested on: Phosphatidylinositol 4,5-bisphosphate 3-kinase catalytic subunit alpha isoform (Homo sapiens), P42336 [H1047L]; conditions: Compound concentration 1000.0 nM
[26] = target: Serine/threonine-protein kinase Sgk3 (Homo sapiens) (UniProt Q96BR1); conditions: Compound concentration 1000.0 nM
[27] = target: SRSF protein kinase 2 (Homo sapiens) (UniProt P78362); conditions: Compound concentration 1000.0 nM
[28] = target: Wee1-like protein kinase 2 (Homo sapiens) (UniProt P0C1S8); conditions: Compound concentration 1000.0 nM
[29] = target: 5-hydroxytryptamine receptor 1D (Homo sapiens) (UniProt P28221); conditions: Compound concentration 10.0 uM
[30] = target: Delta-type opioid receptor (Homo sapiens) (UniProt P41143); conditions: Compound concentration 10.0 uM
[31] = target: T1, Alpha-1A adrenergic receptor (Homo sapiens) (UniProt P35348); conditions: Compound concentration 10.0 uM
T1 sequence (whole entry): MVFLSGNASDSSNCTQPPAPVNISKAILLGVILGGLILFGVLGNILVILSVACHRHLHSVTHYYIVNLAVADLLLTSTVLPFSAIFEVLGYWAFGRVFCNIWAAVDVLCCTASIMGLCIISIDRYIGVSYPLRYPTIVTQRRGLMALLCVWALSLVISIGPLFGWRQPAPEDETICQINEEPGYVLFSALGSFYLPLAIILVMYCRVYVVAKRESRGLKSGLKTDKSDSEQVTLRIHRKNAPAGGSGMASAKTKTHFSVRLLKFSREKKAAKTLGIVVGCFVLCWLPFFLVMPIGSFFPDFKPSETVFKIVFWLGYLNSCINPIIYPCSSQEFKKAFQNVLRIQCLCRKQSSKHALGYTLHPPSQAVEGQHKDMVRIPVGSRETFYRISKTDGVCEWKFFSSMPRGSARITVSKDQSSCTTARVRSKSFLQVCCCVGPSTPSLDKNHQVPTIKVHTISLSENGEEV

[32] = target: T2, Alpha-2A adrenergic receptor (Homo sapiens) (UniProt P08913); conditions: Compound concentration 10.0 uM
T2 sequence (whole entry): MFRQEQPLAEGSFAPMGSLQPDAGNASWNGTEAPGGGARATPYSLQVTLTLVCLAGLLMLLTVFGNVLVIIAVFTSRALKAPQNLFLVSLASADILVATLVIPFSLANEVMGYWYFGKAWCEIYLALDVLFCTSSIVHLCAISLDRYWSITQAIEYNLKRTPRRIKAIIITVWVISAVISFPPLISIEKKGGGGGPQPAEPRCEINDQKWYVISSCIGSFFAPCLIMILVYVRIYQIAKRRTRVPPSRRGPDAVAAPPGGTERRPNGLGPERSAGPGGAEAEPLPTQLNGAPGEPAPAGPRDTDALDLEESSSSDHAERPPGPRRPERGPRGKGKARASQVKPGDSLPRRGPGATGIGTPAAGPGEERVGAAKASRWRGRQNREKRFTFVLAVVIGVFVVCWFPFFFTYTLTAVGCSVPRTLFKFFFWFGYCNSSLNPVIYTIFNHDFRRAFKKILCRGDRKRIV

Chain of 5'-AMP-activated protein kinase catalytic subunit alpha-1 (Homo sapiens) (Q13131 whole entry, looked up): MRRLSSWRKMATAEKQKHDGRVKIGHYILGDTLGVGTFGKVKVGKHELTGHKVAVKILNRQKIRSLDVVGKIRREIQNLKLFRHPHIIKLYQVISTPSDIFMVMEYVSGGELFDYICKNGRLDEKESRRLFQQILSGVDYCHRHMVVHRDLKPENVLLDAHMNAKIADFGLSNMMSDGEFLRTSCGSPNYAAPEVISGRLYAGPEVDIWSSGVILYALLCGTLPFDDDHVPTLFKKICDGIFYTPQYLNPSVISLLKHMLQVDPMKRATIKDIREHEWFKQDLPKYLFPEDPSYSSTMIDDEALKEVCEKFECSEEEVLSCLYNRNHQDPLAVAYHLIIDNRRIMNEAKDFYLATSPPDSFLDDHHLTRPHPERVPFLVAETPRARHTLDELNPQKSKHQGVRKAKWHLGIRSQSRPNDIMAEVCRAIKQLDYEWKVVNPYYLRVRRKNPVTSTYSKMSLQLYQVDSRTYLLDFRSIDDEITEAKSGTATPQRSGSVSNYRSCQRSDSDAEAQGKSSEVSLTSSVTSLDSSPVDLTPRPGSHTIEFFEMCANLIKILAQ
Chain of Mast/stem cell growth factor receptor Kit (Homo sapiens), P10721 [L576P] (P10721 whole entry L576P): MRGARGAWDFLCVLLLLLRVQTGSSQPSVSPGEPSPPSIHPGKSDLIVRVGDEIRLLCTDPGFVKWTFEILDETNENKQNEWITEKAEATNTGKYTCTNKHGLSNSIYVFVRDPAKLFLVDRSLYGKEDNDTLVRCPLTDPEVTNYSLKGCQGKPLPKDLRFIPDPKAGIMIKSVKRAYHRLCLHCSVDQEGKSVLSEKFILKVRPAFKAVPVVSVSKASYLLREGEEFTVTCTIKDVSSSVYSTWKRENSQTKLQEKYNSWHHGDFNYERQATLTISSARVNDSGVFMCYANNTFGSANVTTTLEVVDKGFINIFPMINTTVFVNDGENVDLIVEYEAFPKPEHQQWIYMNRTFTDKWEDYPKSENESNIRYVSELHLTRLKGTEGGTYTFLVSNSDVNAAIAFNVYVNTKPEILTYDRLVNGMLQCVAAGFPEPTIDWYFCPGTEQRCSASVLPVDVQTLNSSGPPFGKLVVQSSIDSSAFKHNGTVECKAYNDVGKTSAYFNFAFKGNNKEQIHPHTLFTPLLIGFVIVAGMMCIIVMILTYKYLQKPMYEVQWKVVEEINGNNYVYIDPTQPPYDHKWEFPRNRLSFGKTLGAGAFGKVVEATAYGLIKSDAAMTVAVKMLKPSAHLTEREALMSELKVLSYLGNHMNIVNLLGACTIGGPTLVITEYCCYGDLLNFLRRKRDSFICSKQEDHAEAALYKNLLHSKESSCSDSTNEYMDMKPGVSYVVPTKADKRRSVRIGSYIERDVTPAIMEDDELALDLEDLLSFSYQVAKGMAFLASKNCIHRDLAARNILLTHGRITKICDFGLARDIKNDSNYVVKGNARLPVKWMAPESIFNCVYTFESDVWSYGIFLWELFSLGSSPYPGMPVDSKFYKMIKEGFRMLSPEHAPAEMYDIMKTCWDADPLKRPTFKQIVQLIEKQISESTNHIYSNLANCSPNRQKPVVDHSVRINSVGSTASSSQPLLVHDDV
Chain of Insulin-like growth factor 1 receptor (Homo sapiens) (P08069 31-736 limits assumed): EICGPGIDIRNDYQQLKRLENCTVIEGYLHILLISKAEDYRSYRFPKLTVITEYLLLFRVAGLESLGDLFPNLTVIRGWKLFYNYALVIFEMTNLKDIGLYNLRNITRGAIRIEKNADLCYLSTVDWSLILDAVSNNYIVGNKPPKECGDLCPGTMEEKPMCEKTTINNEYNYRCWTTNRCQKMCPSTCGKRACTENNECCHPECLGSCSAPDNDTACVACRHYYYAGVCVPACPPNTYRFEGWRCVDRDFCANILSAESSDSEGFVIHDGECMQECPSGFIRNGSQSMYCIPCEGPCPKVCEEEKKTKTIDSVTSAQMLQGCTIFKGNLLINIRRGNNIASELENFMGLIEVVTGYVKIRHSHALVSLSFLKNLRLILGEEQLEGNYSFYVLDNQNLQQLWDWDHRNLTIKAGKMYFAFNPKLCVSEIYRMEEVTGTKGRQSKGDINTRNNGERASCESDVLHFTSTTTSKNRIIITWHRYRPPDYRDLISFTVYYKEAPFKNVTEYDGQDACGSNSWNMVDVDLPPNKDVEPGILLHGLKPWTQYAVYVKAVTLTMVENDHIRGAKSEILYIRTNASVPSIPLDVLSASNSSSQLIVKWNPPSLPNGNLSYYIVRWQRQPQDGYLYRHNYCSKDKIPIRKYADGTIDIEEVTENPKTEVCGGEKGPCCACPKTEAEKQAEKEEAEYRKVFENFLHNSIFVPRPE
Chain of Insulin-like growth factor 1 receptor (Homo sapiens) (P08069 741-1367 limits assumed): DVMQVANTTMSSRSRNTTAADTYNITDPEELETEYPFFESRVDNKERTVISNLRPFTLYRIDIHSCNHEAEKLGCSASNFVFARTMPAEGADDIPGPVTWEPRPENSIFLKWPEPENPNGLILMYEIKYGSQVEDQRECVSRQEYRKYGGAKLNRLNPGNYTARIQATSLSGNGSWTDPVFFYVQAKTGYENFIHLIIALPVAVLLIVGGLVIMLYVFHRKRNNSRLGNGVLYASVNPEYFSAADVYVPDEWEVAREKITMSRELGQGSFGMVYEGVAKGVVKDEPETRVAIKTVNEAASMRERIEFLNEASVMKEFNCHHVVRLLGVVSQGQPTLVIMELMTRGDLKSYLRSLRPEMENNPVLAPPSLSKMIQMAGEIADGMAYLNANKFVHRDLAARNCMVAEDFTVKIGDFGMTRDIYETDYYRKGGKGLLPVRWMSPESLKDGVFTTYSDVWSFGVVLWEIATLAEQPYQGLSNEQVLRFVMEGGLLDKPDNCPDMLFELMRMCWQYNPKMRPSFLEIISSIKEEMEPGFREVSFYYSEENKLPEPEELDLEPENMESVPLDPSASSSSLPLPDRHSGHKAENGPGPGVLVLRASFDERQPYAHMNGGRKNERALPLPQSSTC
Chain of Dual specificity protein kinase CLK2 (Homo sapiens) (P49760 whole entry, looked up): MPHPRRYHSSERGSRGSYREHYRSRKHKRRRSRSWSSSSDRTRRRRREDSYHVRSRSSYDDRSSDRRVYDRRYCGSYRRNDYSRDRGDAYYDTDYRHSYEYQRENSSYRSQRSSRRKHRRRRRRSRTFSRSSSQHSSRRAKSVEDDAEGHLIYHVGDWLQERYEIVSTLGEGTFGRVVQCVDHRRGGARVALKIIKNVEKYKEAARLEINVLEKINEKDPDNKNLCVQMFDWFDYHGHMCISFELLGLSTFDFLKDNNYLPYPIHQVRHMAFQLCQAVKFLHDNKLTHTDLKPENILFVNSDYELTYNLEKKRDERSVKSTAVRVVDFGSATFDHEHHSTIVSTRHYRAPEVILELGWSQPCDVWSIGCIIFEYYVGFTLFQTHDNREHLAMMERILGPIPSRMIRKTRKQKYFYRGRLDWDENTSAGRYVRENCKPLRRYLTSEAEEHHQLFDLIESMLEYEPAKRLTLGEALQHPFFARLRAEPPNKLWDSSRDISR
Chain of Homeodomain-interacting protein kinase 3 (Homo sapiens) (Q9H422 whole entry, looked up): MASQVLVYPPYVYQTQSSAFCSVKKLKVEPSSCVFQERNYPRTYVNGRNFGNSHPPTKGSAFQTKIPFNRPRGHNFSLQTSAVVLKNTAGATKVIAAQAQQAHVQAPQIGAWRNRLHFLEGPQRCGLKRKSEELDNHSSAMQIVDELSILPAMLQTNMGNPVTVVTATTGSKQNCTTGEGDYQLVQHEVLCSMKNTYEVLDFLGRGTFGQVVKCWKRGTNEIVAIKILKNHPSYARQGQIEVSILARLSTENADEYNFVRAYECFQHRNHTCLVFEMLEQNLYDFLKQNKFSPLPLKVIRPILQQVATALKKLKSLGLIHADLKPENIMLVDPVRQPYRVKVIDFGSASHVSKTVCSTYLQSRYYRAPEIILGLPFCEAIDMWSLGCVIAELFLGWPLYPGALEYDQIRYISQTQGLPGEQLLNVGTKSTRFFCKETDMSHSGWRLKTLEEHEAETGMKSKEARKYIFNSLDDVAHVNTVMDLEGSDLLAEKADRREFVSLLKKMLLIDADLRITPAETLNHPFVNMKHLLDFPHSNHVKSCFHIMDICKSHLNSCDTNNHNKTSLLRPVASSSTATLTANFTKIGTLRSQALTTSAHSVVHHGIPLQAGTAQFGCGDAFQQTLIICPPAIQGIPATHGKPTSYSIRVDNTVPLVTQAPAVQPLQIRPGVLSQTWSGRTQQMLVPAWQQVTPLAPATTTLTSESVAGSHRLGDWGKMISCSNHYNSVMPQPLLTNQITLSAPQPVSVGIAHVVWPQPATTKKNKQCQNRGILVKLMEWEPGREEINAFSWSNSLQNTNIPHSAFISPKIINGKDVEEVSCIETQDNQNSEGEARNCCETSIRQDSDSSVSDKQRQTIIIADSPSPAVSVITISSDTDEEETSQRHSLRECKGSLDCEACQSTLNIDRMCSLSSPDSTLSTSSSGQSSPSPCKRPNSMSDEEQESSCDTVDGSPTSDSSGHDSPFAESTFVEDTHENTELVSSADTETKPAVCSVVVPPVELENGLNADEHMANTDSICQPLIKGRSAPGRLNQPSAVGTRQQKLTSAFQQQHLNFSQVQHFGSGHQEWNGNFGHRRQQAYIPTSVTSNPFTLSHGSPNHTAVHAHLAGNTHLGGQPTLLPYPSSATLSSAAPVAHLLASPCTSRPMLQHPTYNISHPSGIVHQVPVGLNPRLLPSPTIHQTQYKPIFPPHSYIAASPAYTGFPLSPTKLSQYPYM
Chain of 5-hydroxytryptamine receptor 1D (Homo sapiens) (P28221 whole entry): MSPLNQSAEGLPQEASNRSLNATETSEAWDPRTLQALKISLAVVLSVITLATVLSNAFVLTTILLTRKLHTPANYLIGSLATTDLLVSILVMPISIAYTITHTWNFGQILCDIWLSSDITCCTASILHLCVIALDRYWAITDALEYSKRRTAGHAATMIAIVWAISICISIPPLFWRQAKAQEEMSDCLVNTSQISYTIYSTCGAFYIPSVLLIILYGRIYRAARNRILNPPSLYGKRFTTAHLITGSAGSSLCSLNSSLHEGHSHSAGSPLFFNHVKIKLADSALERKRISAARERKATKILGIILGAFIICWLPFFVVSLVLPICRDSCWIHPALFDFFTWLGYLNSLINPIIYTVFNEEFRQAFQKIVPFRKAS
Chain of Mast/stem cell growth factor receptor Kit (Homo sapiens), P10721 [D816H] (P10721 whole entry D816H): as the sequence (P10721 whole entry L576P) above, with P576L, D816H counted along it

With `CC(=O)N1CCC(c2ccc(C(=O)NC(=N)N)cc2C(F)(F)F)CC1` [BI 9627] the residual activity [1] was 92%, the residual activity [2] was 60% and the residual activity [3] was 100%. It also gave a residual activity [4] of 97%, a residual activity [5] of 100% and a residual activity [6] of 100%. The residual activity [7] was 100%, the residual activity [8] was 97% and the residual activity [9] was 86%. The residual activity [10] was 100%, the residual activity [11] was 100% and the residual activity [12] was 100%. The residual activity [13] was 100%, the residual activity [14] was 100% and the residual activity [15] was 98%. It also gave a residual activity [16] of 100%, a residual activity [17] of 82% and a residual activity [18] of 100%. For the same compound, the residual activity [19] was 100%, the residual activity [20] was 92% and the residual activity [21] was 98%. For the same compound, the residual activity [22] was 100%, the residual activity [23] was 99% and the residual activity [24] was 100%. For the same compound, the residual activity [25] was 100%, the residual activity [26] was 100% and the residual activity [27] was 0%. The residual activity [28] was 100%, the inhibition [29] was 34% and the inhibition [30] was -5.35%. It also gave an inhibition [31] of 6.05% and an inhibition [32] of -0.34%.

For `CC(=O)N1CCC(c2ccc(C(=O)NC3=NCCN3)cc2C(F)(F)F)CC1` [BI 0054], the residual activity [1] was 77%, the residual activity [2] was 100% and the residual activity [3] was 100%. It also gave a residual activity [4] of 100%, a residual activity [5] of 98% and a residual activity [6] of 100%. The residual activity [7] was 100%, the residual activity [8] was 94% and the residual activity [9] was 89%. For the same compound, the residual activity [10] was 91%, the residual activity [11] was 100% and the residual activity [12] was 100%. It also gave a residual activity [13] of 100%, a residual activity [14] of 100% and a residual activity [15] of 87%. For the same compound, the residual activity [16] was 89%, the residual activity [17] was 72% and the residual activity [18] was 100%. It also gave a residual activity [19] of 97%, a residual activity [20] of 95% and a residual activity [21] of 81%. For the same compound, the residual activity [22] was 100%, the residual activity [23] was 90% and the residual activity [24] was 98%. The residual activity [25] was 100%, the residual activity [26] was 82% and the residual activity [27] was 100%. It also gave a residual activity [28] of 100%, an inhibition [29] of 9.64% and an inhibition [30] of -0.82%. For the same compound, the inhibition [31] was -5.1% and the inhibition [32] was 4.92%.
